In patent US8247211B2, “Glycopeptide antibiotics” (American Cyanamid Company, priority 2001, dated 2012):
Converted amounts (≈) assume the structure as drawn.

Columns and labels:
Assay in all cases: In vitro antibacterial evaluation: minimum inhibitory concentration (MIC), broth dilution method
Assay type in all cases: cell-based
Streptococcus sp. = conditions: broth dilution, 5×10^5 CFU/mL, 18 hours at 35° C.
Procedure: (§1) The minimum inhibitory concentration (MIC), the lowest concentration of the antibiotic which inhibits growth of the test organism, is determined by the broth dilution method using Muller-Hinton II […] (Baltimore Biological Laboratories) following the recommendations of the National Committee for Clinical Laboratory Standards [Methods for dilution antimicrobial susceptibility tests for bacteria that grow aerobically, approved standard M7-A2, National Committee for Clinical Laboratory Standards, Villanova, Pa].
(§2) An inoculum level of 5×10^5 CFU/mL, and a range of antibiotic concentrations (64-0.06 μg/mL) is used. […] The test organisms include a spectrum of Gram-positive bacteria comprised of Staphylococcus sp., Streptococcus sp. and Enterococcus sp. These organisms include recent clinical isolates that are resistant to methicillin, penicillin and/or vancomycin.

Escherichia coli = conditions: 5×10^5 CFU/mL, 18 hours at 35° C.
Procedure: as §1, §2

Staphylococcus sp. = conditions: for MIC Staphylococcus aureus (ATCC 29213): strain ATCC 29213; for MIC Staphylococcus aureus (GC 1131): strain GC 1131; for MIC Staphylococcus aureus (GC 3051): strain GC 3051; for MIC Staphylococcus aureus (GC 3053): strain GC 3053; for MIC Staphylococcus aureus (GC 4541): strain GC 4541; for MIC Staphylococcus aureus (GC 4542): strain GC 4542; for MIC Staphylococcus aureus (GC 4544): strain GC 4544; for MIC Staphylococcus aureus (GC 4545): strain GC 4545
Procedure: as §1, §2

Enterococcus sp. = conditions: broth dilution, 5×10^5 CFU/mL, 18 hours at 35° C.
Procedure: as §1, §2

[1] = broth dilution, 5×10^5 CFU/mL, 18 hours at 35° C.
[2] = broth dilution, 18 hours at 35° C.

- MIC Streptococcus agalactiae (GC 4564) (Streptococcus sp.): <0.12 µg/mL
- MIC Streptococcus pneumoniae (GC 1894) (Streptococcus sp.): <0.12 µg/mL
- MIC Streptococcus pneumoniae (GC 4565) (Streptococcus sp.): <0.12 µg/mL
- MIC Streptococcus pneumonine (ATCC 6301) (Streptococcus sp.): <0.12 µg/mL
- MIC Streptococcus pyogenes (GC 4563) (Streptococcus sp.): 0.25 µg/mL (≈ 0.173 µM)
- MIC Escherichia coli (ATCC 25922) (Escherichia coli): 64 µg/mL (≈ 44.4 µM)
- MIC Escherichia coli (GC 4559) (Escherichia coli): 64 µg/mL (≈ 44.4 µM)
- MIC Escherichia coli (GC 4560) (Escherichia coli): 4 µg/mL (≈ 2.77 µM)
- MIC Coagulase Negative Staphylococcus (GC 4547) (Staphylococcus sp.; [1]): 4 µg/mL (≈ 2.77 µM)
- MIC Coagulase Negative Staphylococcus (GC 4548) (Staphylococcus sp.; [1]): 2 µg/mL (≈ 1.39 µM)
- MIC Coagulase Negative Staphylococcus (GC 4549) (Staphylococcus sp.; [1]): 1 µg/mL (≈ 0.694 µM)
- MIC Coagulase Negative Staphylococcus (GC 4551) (Staphylococcus sp.; [1]): 2 µg/mL (≈ 1.39 µM)
- MIC Staphylococcus aureus-SMITH (GC 4543) (Staphylococcus sp.; [1]): 2 µg/mL (≈ 1.39 µM)
- MIC Staphylococcus aureus (ATCC 29213) (Staphylococcus sp.): 2 µg/mL (≈ 1.39 µM)
- MIC Staphylococcus aureus (ATCC 29213) (Staphylococcus sp.; [2]): 2 µg/mL (≈ 1.39 µM)
- MIC Staphylococcus aureus (GC 1131) (Staphylococcus sp.): 4 µg/mL (≈ 2.77 µM)
- MIC Staphylococcus aureus (GC 1131) (Staphylococcus sp.; [2]): 4 µg/mL (≈ 2.77 µM)
- MIC Staphylococcus aureus (GC 3051) (Staphylococcus sp.): 2 µg/mL (≈ 1.39 µM)
- MIC Staphylococcus aureus (GC 3051) (Staphylococcus sp.; [2]): 2 µg/mL (≈ 1.39 µM)
- MIC Staphylococcus aureus (GC 3053) (Staphylococcus sp.): 2 µg/mL (≈ 1.39 µM)
- MIC Staphylococcus aureus (GC 3053) (Staphylococcus sp.; [2]): 2 µg/mL (≈ 1.39 µM)
- MIC Staphylococcus aureus (GC 4541) (Staphylococcus sp.): 4 µg/mL (≈ 2.77 µM)
- MIC Staphylococcus aureus (GC 4541) (Staphylococcus sp.; [2]): 4 µg/mL (≈ 2.77 µM)
- MIC Staphylococcus aureus (GC 4542) (Staphylococcus sp.): 2 µg/mL (≈ 1.39 µM)
- MIC Staphylococcus aureus (GC 4542) (Staphylococcus sp.; [2]): 2 µg/mL (≈ 1.39 µM)
- MIC Staphylococcus aureus-SMITH (GC 4543) (Staphylococcus sp.; strain GC 4543, broth dilution, 18 hours at 35° C.): 2 µg/mL (≈ 1.39 µM)
- MIC Staphylococcus aureus (GC 4544) (Staphylococcus sp.): 4 µg/mL (≈ 2.77 µM)
- MIC Staphylococcus aureus (GC 4544) (Staphylococcus sp.; [2]): 4 µg/mL (≈ 2.77 µM)
- MIC Staphylococcus aureus (GC 4545) (Staphylococcus sp.): 2 µg/mL (≈ 1.39 µM)
- MIC Staphylococcus aureus (GC 4545) (Staphylococcus sp.; [2]): 2 µg/mL (≈ 1.39 µM)
- MIC Coagulase Negative Staphylococcus (GC 4547) (Staphylococcus sp.; strain GC 4547, broth dilution, 18 hours at 35° C.): 4 µg/mL (≈ 2.77 µM)
- MIC Coagulase Negative Staphylococcus (GC 4548) (Staphylococcus sp.; strain GC 4548, broth dilution, 18 hours at 35° C.): 2 µg/mL (≈ 1.39 µM)
- MIC Coagulase Negative Staphylococcus (GC 4549) (Staphylococcus sp.; strain GC 4549, broth dilution, 18 hours at 35° C.): 1 µg/mL (≈ 0.694 µM)
- MIC Coagulase Negative Staphylococcus (GC 4551) (Staphylococcus sp.; strain GC 4551, broth dilution, 18 hours at 35° C.): 2 µg/mL (≈ 1.39 µM)
- MIC Enterococccus avium (GC 4558) (Enterococcus sp.): 2 µg/mL (≈ 1.39 µM)
- MIC Enterococccus faecalis (ATCC 29212) (Enterococcus sp.): 2 µg/mL (≈ 1.39 µM)
- MIC Enterococccus faecalis (GC 2691) (Enterococcus sp.): 4 µg/mL (≈ 2.77 µM)
- MIC Enterococccus faecalis (GC 3059) (Enterococcus sp.): 2 µg/mL (≈ 1.39 µM)
- MIC Enterococccus faecalis (GC 4552) (Enterococcus sp.): 4 µg/mL (≈ 2.77 µM)
- MIC Enterococccus faecalis (GC 4553) (Enterococcus sp.): 4 µg/mL (≈ 2.77 µM)
- MIC Enterococccus faecalis (GC 4554) (Enterococcus sp.): 4 µg/mL (≈ 2.77 µM)
- MIC Enterococccus faecalis (GC 6189) (Enterococcus sp.): 2 µg/mL (≈ 1.39 µM)
- MIC Enterococccus faecium (GC 2243) (Enterococcus sp.): 4 µg/mL (≈ 2.77 µM)
- MIC Enterococccus faecium (GC 4556) (Enterococcus sp.): 4 µg/mL (≈ 2.77 µM)
- MIC Enterococccus faecium (GC 4557) (Enterococcus sp.): 4 µg/mL (≈ 2.77 µM)
- MIC Enterococcus faecalis (GC 2242) (Enterococcus sp.): 4 µg/mL (≈ 2.77 µM)
Structure (SMILES): CC(c1ccccc1)C1NC(=O)CNC(=O)C(CO)NC(=O)C(C(O)C2CNC(=N)N2C2OC(CO)C(O)C(O)C2O)NC(=O)C(C(O)C2CNC(=N)N2)NC(=O)C(Cc2ccc(OC3OC(CO)C(OC4OC5COC(C67CC8CC(CC(C8)C6)C7)OC5C(O)C4O)C(O)C3O)cc2)NC1=O (stereo not drawn) [Example 127]
- MIC Staphylococcus haemolyticus (GC 4546) (Staphylococcus sp.; [1]): 2 µg/mL (≈ 1.39 µM)
- MIC Staphylococcus haemolyticus (GC 4546) (Staphylococcus sp.; strain GC 4546, broth dilution, 18 hours at 35° C.): 2 µg/mL (≈ 1.39 µM)
